Test results from patent US10828305B2 (SHANGHAI PHARMACEUTICALS HOLDING CO., LTD., priority 2016, dated 2020).

Legend:
ErbB2 kinase = ErbB2 kinase (Homo sapiens, UniProt P04626); assay: Enzymatic experiment on ErbB2 (HTRF kinEASE-TK); format: biochemical; conditions: ATP 4 μM; read-out: Kinase IC50 (nM) in vitro ErbB2
Method: (§1) Enzymatic Experiment on EGFR/ErbB2
(§2) Firstly, preparing 1× reaction buffer required for the kinase, 5× Enzymatic buffer (HEPES 20 mM pH7.0, NaN3 0.1%, BSA 0.05%, sodium orthovanadate 0.5 mM) in the HTRF kinEASE-TK kit was diluted to 1 time with deionized water, 50 nM Supplement Enzymatic buffer (SEB reagent), 1 mM MnCl2, 5 mM MgCl2 and 1 mM DTT were added. Secondly, preparing 5× compound, 10 mM test compound stock solution was diluted in multiple steps with DMSO in a 96-well compound plate to prepare 100× compound as initial concentration, which was then used as the first concentration to perform a 3-fold gradient dilution with DMSO to obtain 10 concentrations. Afterwards, 1 μl gradient dilution was added to 19 μl 1× reaction buffer to prepare 5× compound for use. Then 2 μl 5× compound was transferred from the 96 well plate into a 384-well plate. To the compound-free control wells was added with 2 μl the following liquid: 19 μl 1× reaction buffer with addition of 1 μl DMSO. To the blank control wells was added 2 μl 250 mM EDTA. The third step was enzymatic reaction, the kinase, substrate (TK Substrate-biotin) and ATP were formulated into 2.5× enzyme/substrate mixture and 2.5×ATP solution using 1× reaction buffer respectively. The final concentration of ErbB2 kinase was 0.06 ng/μl, the final concentration of ATP was 4 μM; the final concentration of EGFR kinase was 0.06 units/μl, the final concentration of ATP was 1.65 μM; 4 μl 2.5× enzyme/substrate mixture was added to a 384-well plate, which was incubated at room temperature for 5 minutes; 4 μl 2.5×ATP solution was added to each well and the mixture was allowed to react for 30 minutes at room temperature. The fourth step was termination of the reaction, HTRF Detection buffer was used to prepare a mixture of 2×TK Antibody-Eu(K) and Sa-XL665, the amount of TK Antibody-Eu(K) was 5 μl per well. After the enzymatic reaction was performed for 30 minutes, 10 μl of the above liquid was added to the 384-well plate and the mixture was allowed to react at room temperature for 1 hour. The data was measured on EnVision™, the laser of 337 nm wavelength was selected as the excitation light, RFU665 nM and RFU620 nM were measured, and […]/RFU620 nM×10000 was used as the final data for analysis.

EGFR kinase = EGFR kinase (Homo sapiens, UniProt P00533); assay: Enzymatic experiment on EGFR (HTRF kinEASE-TK); format: biochemical; conditions: ATP 1.65 μM; read-out: Kinase IC50 (nM) in vitro EGFR
Sequence of EGFR kinase (P00533 25-1210): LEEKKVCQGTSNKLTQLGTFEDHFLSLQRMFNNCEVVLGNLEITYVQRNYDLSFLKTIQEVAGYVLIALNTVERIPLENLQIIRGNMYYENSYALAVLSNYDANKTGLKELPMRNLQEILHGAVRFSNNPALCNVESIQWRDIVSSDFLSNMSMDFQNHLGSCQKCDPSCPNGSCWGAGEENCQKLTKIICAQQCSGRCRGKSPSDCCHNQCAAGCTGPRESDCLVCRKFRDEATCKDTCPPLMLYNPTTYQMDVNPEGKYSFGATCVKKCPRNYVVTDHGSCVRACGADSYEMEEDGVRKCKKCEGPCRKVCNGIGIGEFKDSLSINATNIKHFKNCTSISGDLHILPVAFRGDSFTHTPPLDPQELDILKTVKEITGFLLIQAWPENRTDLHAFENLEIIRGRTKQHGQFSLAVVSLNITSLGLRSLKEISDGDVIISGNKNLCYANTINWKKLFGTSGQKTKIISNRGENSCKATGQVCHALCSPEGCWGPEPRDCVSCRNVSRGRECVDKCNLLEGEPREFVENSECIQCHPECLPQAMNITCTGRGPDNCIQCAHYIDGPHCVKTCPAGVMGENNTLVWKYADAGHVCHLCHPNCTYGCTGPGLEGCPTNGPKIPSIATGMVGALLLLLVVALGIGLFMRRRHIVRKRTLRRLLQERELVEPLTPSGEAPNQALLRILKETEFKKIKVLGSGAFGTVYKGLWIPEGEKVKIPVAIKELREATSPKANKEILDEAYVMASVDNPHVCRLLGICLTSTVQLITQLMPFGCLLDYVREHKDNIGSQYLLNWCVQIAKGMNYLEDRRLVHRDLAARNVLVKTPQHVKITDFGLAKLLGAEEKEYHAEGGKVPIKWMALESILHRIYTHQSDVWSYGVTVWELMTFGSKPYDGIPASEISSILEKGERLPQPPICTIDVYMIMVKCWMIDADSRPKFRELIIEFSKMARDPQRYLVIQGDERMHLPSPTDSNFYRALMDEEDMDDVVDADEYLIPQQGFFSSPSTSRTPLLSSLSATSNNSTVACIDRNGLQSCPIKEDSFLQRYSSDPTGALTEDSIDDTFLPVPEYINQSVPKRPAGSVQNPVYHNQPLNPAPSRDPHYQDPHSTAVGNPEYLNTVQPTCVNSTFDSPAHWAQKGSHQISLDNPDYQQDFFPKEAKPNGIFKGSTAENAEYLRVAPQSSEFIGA
Method: as §1, §2

N87 = assay: Proliferation inhibition assay in vitro, N87 (CellTiter-Glo); format: cell-based; conditions: Homo sapiens; 72 hours; read-out: IC50(nM) cell N87
Method: (§3) Proliferation Inhibition Assay In Vitro of Cell Lines
(§4) 1. Cell culture and inoculation: on the first day of the experiment, normal cultured cells were taken in the exponential growth phase, the cells were dispersed by digesting, then the cell density was adjusted to 8.8×10^4 cells/mL for BT-474 and 6.6×10^4 cells/mL for N87, 90 μl of which were inoculated to each well in a 96-well cell culture plate; after inoculation, the microplate was placed at condition of 37° C., 5% CO2 overnight. 2. Dosing to cells: on the second day of the experiment, the microplate was taken out from incubator, […], of 10× compound was separately added to each well of the microplate, 2 duplicated wells were set for each concentration, 9 dosing concentrations were set for each compound. According to different cell lines, the initial concentration of each compound was different. Upon completion of addition, the microplate was placed at condition of 37° C., 5% CO2 for 72 hours. 3. Data acquisition: the microplate was taken out from the incubator and allowed to stand at room temperature to equilibrate for 30 minutes. 100 μl CellTiter-Glo® Luminescent Cell Viability Assay reaction solution which had been equilibrated at room temperature was added to each well and the microplate was shaken at 1300 rpm for 2 minutes at room temperature. The microplate was centrifuged at 2000 rpm for 1 minute in a HERAEUS Multifuge X1R and then allowed to equilibrate at room temperature for 10 minutes. The […] signal was measured on EnVision™.

BT-474 = assay: Proliferation inhibition assay in vitro, BT-474 (CellTiter-Glo); format: cell-based; conditions: Homo sapiens, 72 hours, read-out: IC50(nM) cell BT-474
Method: as §3, §4

Sequence of ErbB2 kinase (P04626 23-1255): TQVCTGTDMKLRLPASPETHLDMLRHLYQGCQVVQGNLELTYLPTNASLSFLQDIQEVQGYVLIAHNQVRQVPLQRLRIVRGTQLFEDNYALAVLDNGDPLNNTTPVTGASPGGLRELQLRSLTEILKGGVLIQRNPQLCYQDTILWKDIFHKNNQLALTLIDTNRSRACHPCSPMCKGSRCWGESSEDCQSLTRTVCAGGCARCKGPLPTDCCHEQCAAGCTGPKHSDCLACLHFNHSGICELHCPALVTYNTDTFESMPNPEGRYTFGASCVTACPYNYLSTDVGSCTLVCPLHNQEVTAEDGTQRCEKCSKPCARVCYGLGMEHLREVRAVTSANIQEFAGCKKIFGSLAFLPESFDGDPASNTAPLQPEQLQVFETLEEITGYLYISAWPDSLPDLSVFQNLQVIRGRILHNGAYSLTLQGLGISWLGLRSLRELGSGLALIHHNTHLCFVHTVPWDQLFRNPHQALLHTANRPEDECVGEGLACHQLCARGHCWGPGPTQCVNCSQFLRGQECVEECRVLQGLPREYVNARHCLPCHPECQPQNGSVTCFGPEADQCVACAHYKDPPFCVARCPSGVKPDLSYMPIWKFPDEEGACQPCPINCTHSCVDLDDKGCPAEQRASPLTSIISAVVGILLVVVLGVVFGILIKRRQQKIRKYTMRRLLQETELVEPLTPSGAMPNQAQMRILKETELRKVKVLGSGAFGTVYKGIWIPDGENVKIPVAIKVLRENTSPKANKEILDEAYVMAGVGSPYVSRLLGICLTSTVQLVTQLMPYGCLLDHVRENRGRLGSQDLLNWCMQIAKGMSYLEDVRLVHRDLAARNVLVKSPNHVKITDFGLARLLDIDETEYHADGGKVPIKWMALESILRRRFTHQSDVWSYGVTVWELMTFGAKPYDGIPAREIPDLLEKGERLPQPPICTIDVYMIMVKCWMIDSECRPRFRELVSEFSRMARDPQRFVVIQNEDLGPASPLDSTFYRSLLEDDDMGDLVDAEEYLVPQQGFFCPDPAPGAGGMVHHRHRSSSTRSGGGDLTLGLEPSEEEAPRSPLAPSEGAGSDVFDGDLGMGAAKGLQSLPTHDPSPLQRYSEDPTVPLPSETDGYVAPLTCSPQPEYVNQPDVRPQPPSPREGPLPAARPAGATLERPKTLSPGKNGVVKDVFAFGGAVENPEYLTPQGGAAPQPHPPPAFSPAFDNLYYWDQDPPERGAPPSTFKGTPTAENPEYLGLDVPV

`Cc1cc(Nc2ncnc3ccc(NC4=N[C@H](C(C)C)CO4)cc23)ccc1Oc1cc2nncn2cn1` [Embodiment 45, (R)—N^4-(4-([1,2,4]triazolo[4,3-c]pyrimidin-7-yloxy)-3-methylphenyl)-N^6-(4-isopropyl-4,5-dihydrooxazol-2-yl)quinazoline-4,6-diamine] showed an IC50 (ErbB2 kinase) of 2.8 nM, an IC50 (EGFR kinase) of 53.4 nM and an IC50 (N87) of 93.4 nM. For the same compound, the IC50 (BT-474) was 85.4 nM.

In the case of `Cc1cc(Nc2ncnc3ccc(-c4ccc(CNCCS(C)(=O)=O)n4C)cc23)ccc1Oc1cc2nncn2cn1` [Embodiment 123, N-(4-([1,2,4]triazolo[4,3-c]pyrimidin-7-yloxy)-3-methylphenyl)-6-(1-methyl-5-(((2-(methylsulfonyl)ethyl)amino)methyl)-1H-pyrrol-2-yl)quinazolin-4-amine], the IC50 (ErbB2 kinase) is reported as 4.4 nM, the IC50 (EGFR kinase) is reported as 32.8 nM and the IC50 (N87) is reported as 429 nM. It also gave an IC50 (BT-474) of 219 nM.

Compound `C=CC(=O)N1CCC(Oc2cc3c(Nc4ccc(Oc5cc6nncn6cn5)c(F)c4)ncnc3cc2OC)CC1` [Embodiment 88, 1-(4-((4-((4-([1,2,4]triazolo[4,3-c]pyrimidin-7-yloxy)-3-fluorophenyl)amino)-7-methoxyquinazolin-6-yl)oxy)piperidin-1-yl)prop-2-en-1-one] has an IC50 (ErbB2 kinase) of 1.13 nM, an IC50 (EGFR kinase) of 1.9 nM and an IC50 (N87) of 5.2 nM. It also gave an IC50 (BT-474) of 6.3 nM.

Compound `Cc1cc(Nc2ncnc3ccc(-c4cc(CNCCS(C)(=O)=O)co4)cc23)ccc1Oc1cc2nncn2cn1` [Embodiment 62] has an IC50 (ErbB2 kinase) of 1.5 nM, an IC50 (EGFR kinase) of 14.2 nM and an IC50 (N87) of 72.4 nM. For the same compound, the IC50 (BT-474) was 30 nM.

With `Cc1cc(Nc2ncnc3ccc(NC4=NC(C)(CO)CO4)cc23)ccc1Oc1cc2nncn2cn1` (stereo not shown) [Embodiment 13, (2-((4-((4-([1,2,4]triazolo[4,3-c]pyrimidin-7-yloxy)-3-methylphenyl)amino)quinazolin-6-yl)amino)-4-methyl-4,5-dihydrooxazol-4-yl)methanol] the IC50 (ErbB2 kinase) was 2.6 nM, the IC50 (EGFR kinase) was 15.2 nM and the IC50 (N87) was 204 nM. For the same compound, the IC50 (BT-474) was 47.9 nM.

`Cc1cc(Nc2ncnc3ccc(-c4cccc(N)c4)cc23)ccc1Oc1cc2nncn2cn1` [Embodiment 35] gave an IC50 (ErbB2 kinase) of 1.1 nM, an IC50 (EGFR kinase) of 10.9 nM and an IC50 (N87) of 52.9 nM. It also gave an IC50 (BT-474) of 49.6 nM.

Work on `Cc1cc(Nc2ncnc3ccc(NC4=NC5(CCC5)CO4)cc23)ccc1Oc1cc2nncn2cn1` [Embodiment 44, N^4-(4-([1,2,4]triazolo[4,3-c]pyrimidin-7-yloxy)-3-methylphenyl)-N^6-(7-oxa-5-azaspiro[3.4]oct-5-en-6-yl)quinazoline-4,6-diamine] yielded an IC50 (ErbB2 kinase) of 1.43 nM, an IC50 (EGFR kinase) of 11.6 nM and an IC50 (N87) of 46 nM. The IC50 (BT-474) was 41 nM.

Compound `Cc1cc(Nc2ncnc3ccc(NC(=O)Nc4cc(C)n(C)n4)cc23)ccc1Oc1cc2nncn2cn1` [Embodiment 73, 1-(4-((4-([1,2,4]triazolo[4,3-c]pyrimidin-7-yloxy)-3-methylphenyl)amino)quinazolin-6-yl)-3-(1,5-dimethyl-1H-pyrazol-3-yl)urea] has an IC50 (ErbB2 kinase) of 4.21 nM, an IC50 (EGFR kinase) of 34.9 nM and an IC50 (N87) of 162 nM. It also gave an IC50 (BT-474) of 139 nM.

For `Cc1cc(Nc2ncnc3ccc(-n4cccc4)cc23)ccc1Oc1cc2nncn2cn1` [Embodiment 83, N-(4-([1,2,4]triazolo[4,3-c]pyrimidin-7-yloxy)-3-methylphenyl)-6-(1H-pyrrol-1-yl)-quinazolin-4-amine], the IC50 (ErbB2 kinase) was 2.3 nM, the IC50 (EGFR kinase) was 36.4 nM and the IC50 (N87) was 104 nM. It also gave an IC50 (BT-474) of 72.7 nM.

`Cc1cc(Nc2ncnc3ccc(-c4ccc(CNCCS(N)(=O)=O)o4)cc23)ccc1Oc1cc2nncn2cn1` [Embodiment 65] was tested, and the IC50 (ErbB2 kinase) was 1 nM, the IC50 (EGFR kinase) was 3.8 nM and the IC50 (N87) was 63.2 nM. It also gave an IC50 (BT-474) of 19.8 nM.

`Cc1cc(Nc2ncnc3ccc(-c4cccc(N5CCS(=O)(=O)CC5)c4)cc23)ccc1Oc1cc2nncn2cn1` [Embodiment 116, 4-(3-(4-((4-([1,2,4]triazolo[4,3-c]pyrimidin-7-yloxy)-3-methylphenyl)amino)quinazolin-6-yl)phenyl)thiomorpholin-1,1-dioxide] gave an IC50 (ErbB2 kinase) of 1.3 nM, an IC50 (EGFR kinase) of 11.7 nM and an IC50 (N87) of 18.3 nM. For the same compound, the IC50 (BT-474) was 12.6 nM.

In the case of `Cc1cc(Nc2ncnc3ccc(NC(=O)CC(C)(C)O)cc23)ccc1Oc1cc2nncn2cn1` [Embodiment 17, N-(4-((4-([1,2,4]triazolo[4,3,c]pyrimidin-7-yloxy)-3-methylphenyl)amino)quinoline-6-yl)-3-hydroxy-3-methylbutanamide], the IC50 (ErbB2 kinase) is reported as 7.9 nM, the IC50 (EGFR kinase) is reported as 80.9 nM and the IC50 (N87) is reported as 712 nM. For the same compound, the IC50 (BT-474) was 304 nM.

With `Cc1cc(Nc2ncnc3ccc(NC4=NC5(CC5)CO4)cc23)ccc1Oc1cc2nncn2cn1` [Embodiment 72, N′-(4-([1,2,4]triazolo[4,3-c]pyrimidin-7-yloxy)-3-methylphenyl)-N^6-(6-oxa-4-azaspiro[2.4]hept-4-en-5-yl)quinazolin-4,6-diamine] the IC50 (ErbB2 kinase) was 0.9 nM, the IC50 (EGFR kinase) was 4.3 nM and the IC50 (N87) was 34.2 nM. The IC50 (BT-474) was 30 nM.

Compound `Cc1cc(Nc2ncnc3ccc(-c4ccc(CNCCS(C)(=O)=O)s4)cc23)ccc1Oc1cc2nncn2cn1` [Embodiment 79] has an IC50 (ErbB2 kinase) of 1.7 nM, an IC50 (EGFR kinase) of 7.7 nM and an IC50 (N87) of 37.2 nM. The IC50 (BT-474) was 24.7 nM.

`CC1(C)COC(Nc2ccc3ncnc(Nc4ccc(Oc5cc6nncn6cn5)c(Cl)c4)c3c2)=N1` [Embodiment 78, N′-[3-chloro-4-([1,2,4]triazolo[4,3-c]pyrimidin-7-yloxy)phenyl)-N^6-(4,4-dimethyl-4,5-dihydrooxazol-2-yl)quinazolin-4,6-diamine] gave an IC50 (ErbB2 kinase) of 1.8 nM, an IC50 (EGFR kinase) of 3.3 nM and an IC50 (N87) of 22.3 nM. It also gave an IC50 (BT-474) of 13.2 nM.

`Cc1cc(Nc2ncnc3ccc(-c4ccc(CO)o4)cc23)ccc1Oc1cc2nncn2cn1` [Embodiment 60, (5-(4-((4-([1,2,4]triazolo[4,3-c]pyrimidin-7-yloxy)-3-methylphenyl)amino)quinazolin-6-yl)furan-2-yl)methanol] was tested, and the IC50 (ErbB2 kinase) was 1.1 nM, the IC50 (EGFR kinase) was 15.6 nM and the IC50 (N87) was 23.4 nM. The IC50 (BT-474) was 108 nM.

With `C=CC(=O)N1CCC=C(c2ccc3ncnc(Nc4ccc(Oc5cc6nncn6cn5)c(C)c4)c3c2)C1` [Embodiment 120, 1-(5-(4-((4-([1,2,4]triazolo[4,3-c]pyrimidin-7-yloxy)-3-methylphenyl)amino)quinazolin-6-yl)-3,6-dihydropyridin-1(2H)-yl)prop-2-en-1-one] the IC50 (ErbB2 kinase) was 1.31 nM, the IC50 (EGFR kinase) was 7.41 nM and the IC50 (N87) was 2.68 nM. For the same compound, the IC50 (BT-474) was 5.85 nM.

In the case of `Cc1cc(Nc2ncnc3ccc(-n4ccc(CNCCS(C)(=O)=O)c4)cc23)ccc1Oc1cc2nncn2cn1` [Embodiment 86, N-(4-([1,2,4]triazolo[4,3-c]pyrimidin-7-yloxy)-3-methylphenyl)-6-(3-(((2-(methylsulfonyl)ethyl)amino)methyl)-1H-pyrrol-1-yl)quinazolin-4-amine], the IC50 (ErbB2 kinase) is reported as 3.1 nM, the IC50 (EGFR kinase) is reported as 7.7 nM and the IC50 (N87) is reported as 160 nM. For the same compound, the IC50 (BT-474) was 33.8 nM.

With `Cc1cc(Nc2ncnc3ccc(NC(=S)NC(C)(C)CO)cc23)ccc1Oc1cc2nncn2cn1` [Embodiment 106, 1-(4-((4-([1,2,4]triazolo[4,3-c]pyrimidin-7-yloxy)-3-methylphenyl)amino)quinazolin-6-yl)-3-(1-hydroxy-2-methylpropan-2-yl)thiourea] the IC50 (ErbB2 kinase) was 21.5 nM, the IC50 (EGFR kinase) was 445 nM and the IC50 (N87) was 933 nM. For the same compound, the IC50 (BT-474) was 264 nM.
